In patent US20230265151A1, “GIP/GLP1 CO-AGONIST COMPOUNDS” (priority 2020, published 2023):
Read-outs that look alike come from different tables or passages of the source.

What was measured:
Type in all cases: cell-based
hGLP-1R = hGLP-1R (Homo sapiens, UniProt P43220); assay: Functional cAMP formation (HTRF) in HEK-293 clonal cells expressing hGLP-1R, 0.1% bovine casein, without or with 1.0% human serum albumin; parameters: expressed in transfected cells; details: 37° C.; for EC50: geometric mean, read-out: hGLP-1R EC50, nM (SEM, n); for Emax: percent of maximal response to GLP-1(7-36)NH2, read-out: hGLP-1R Emax, % ± SEM
In short: (§1)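 Cells were stimulated with peptide for 30 min at 37° C, then lysed in buffer carrying cAMP-d2 and anti-cAMP Eu3+-cryptate for a competitive HTRF read after at least 60 min at room temperature. The 665/620 nm ratio was converted to nM cAMP against a standard curve.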

hGCGR = molecular target: T1, hGCGR (Homo sapiens, UniProt P47871); assay: Functional cAMP formation (HTRF) in HEK-293 clonal cells expressing hGCGR, 0.1% bovine casein, without or with 1.0% human serum albumin; details: 37° C., geometric mean, read-out: hGCGR EC50, nM (SEM, n)
T1 construct: expressed in transfected cells
In short: as §1

hGIPR = molecular target: T2, hGIPR (Homo sapiens, UniProt P48546); assay: Functional cAMP formation (HTRF) in HEK-293 clonal cells expressing hGIPR, 0.1% bovine casein, without or with 1.0% human serum albumin; details: 37° C.; for Emax: percent of maximal response to GIP(1-42)NH2, read-out: hGIPR Emax, % ± SEM; for EC50: cAMP, 0.1% bovine casein (no human serum albumin), geometric mean, read-out: hGIPR EC50, nM (SEM, n)
T2 construct: expressed in transfected cells
T2 sequence (P48546 22-466): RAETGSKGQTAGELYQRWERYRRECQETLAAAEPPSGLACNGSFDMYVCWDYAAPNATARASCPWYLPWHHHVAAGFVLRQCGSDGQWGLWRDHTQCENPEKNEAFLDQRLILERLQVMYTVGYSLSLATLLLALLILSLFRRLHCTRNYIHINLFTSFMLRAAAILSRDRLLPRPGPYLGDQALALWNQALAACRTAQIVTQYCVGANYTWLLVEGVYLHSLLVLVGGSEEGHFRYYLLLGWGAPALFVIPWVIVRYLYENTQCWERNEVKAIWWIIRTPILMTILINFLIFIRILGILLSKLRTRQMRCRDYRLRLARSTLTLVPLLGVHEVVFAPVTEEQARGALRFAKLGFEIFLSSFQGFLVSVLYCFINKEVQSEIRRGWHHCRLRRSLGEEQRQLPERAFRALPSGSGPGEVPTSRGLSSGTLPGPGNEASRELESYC
In short: as §1

[1] = 0.1% bovine casein and 1.0% human serum albumin
[2] = cAMP, 0.1% bovine casein (no human serum albumin)
[3] = HEK293, 0.1% bovine casein and 1.0% human serum albumin
[4] = HEK293, cAMP, 0.1% bovine casein, arithmetic mean

T1 sequence (P47871 26-477): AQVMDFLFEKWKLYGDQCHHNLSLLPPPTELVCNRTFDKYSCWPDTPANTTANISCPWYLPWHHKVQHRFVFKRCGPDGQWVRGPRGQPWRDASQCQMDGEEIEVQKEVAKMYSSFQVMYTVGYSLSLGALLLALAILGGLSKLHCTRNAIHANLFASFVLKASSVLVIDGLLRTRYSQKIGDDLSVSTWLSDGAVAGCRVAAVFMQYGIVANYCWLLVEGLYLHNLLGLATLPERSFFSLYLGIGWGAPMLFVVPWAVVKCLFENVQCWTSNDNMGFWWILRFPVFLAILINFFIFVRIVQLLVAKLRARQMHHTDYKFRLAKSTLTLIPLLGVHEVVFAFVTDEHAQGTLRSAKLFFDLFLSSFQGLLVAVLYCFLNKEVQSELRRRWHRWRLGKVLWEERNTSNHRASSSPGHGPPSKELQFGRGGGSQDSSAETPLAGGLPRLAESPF
Sequence of hGLP-1R (P43220 24-463): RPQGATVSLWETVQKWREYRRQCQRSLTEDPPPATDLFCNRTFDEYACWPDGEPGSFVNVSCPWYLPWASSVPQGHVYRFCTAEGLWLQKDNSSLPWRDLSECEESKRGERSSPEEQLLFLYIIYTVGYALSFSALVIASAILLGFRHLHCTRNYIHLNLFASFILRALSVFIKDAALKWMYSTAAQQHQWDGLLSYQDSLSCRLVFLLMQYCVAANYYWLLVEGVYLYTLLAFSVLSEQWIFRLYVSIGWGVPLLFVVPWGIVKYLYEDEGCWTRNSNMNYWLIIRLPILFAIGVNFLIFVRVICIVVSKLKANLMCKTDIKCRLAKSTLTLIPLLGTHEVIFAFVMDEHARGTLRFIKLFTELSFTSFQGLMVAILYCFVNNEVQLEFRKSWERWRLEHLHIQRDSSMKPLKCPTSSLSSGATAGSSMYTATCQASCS

SMILES | EC50 (hGLP-1R; [1]) [nM] | EC50 (hGLP-1R; [2]) [nM] | EC50 (hGCGR; [1]) [nM] | EC50 (hGCGR; [2]) [nM] | Emax (hGIPR; [3]) [%] | EC50 (hGIPR) [nM] | Emax (hGLP-1R; [4]) [%] | Emax (hGLP-1R; [3]) [%] | Emax (hGIPR; [4]) [%]
CC[C@H](C)[C@H](NC(=O)[C@H](CC(C)C)NC(=O)[C@](C)(Cc1ccc(O)cc1)NC(=O)[C@@H](CCC(=O)O)NC(=O)[C@@H](NC(=O)[C@H](Cc1ccccc1)NC(=O)[C@H](CCCCNC(=O)COCCOCCNC(=O)COCCOCCNC(=O)CC[C@H](NC(=O)CCCCCCCCCCCCC(=O)O)C(=O)O)NC(=O)C(C)(C)NC(=O)[C@H](CCC(N)=O)NC(=O)[C@H](C)NC(=O)[C@H](CCCCNC(=O)COCCOCCNC(=O)COCCOCCNC(=O)CC[C@H](NC(=O)CCCCCCCCCCCCC(=O)O)C(=O)O)NC(=O)[C@H](CCCN)NC(=O)[C@H](CC(=O)O)NC(=O)[C@H](CC(C)C)NC(=O)[C@](C)(CC(C)C)NC(=O)[C@@H](NC(=O)[C@H](CO)NC(=O)[C@H](Cc1ccc2ccccc2c1)NC(=O)[C@H](CC(=O)O)NC(=O)[C@H](CO)NC(=O)[C@@H](NC(=O)[C@](C)(Cc1ccccc1F)NC(=O)[C@@H](NC(=O)CNC(=O)[C@H](CCC(=O)O)NC(=O)C(C)(C)NC(=O)[C@@H](N)Cc1ccc(O)cc1)[C@@H](C)O)[C@@H](C)O)[C@@H](C)CC)[C@@H](C)CC)C(=O)N[C@@H](CCC(=O)O)C(=O)NCC(=O)NCC(=O)N1CCC[C@H]1C(=O)N[C@@H](CO)C(=O)N[C@@H](CO)C(=O)NCC(=O)N[C@@H](C)C(=O)N1CCC[C@H]1C(=O)N1CCC[C@H]1C(=O)N1CCC[C@H]1C(=O)N[C@@H](CO)C(N)=O [Example 249] | 51.6 | 0.3 | > 9950 | > 9950 | 88.9 | 0.0201 |  |  | 
CC[C@H](C)[C@H](NC(=O)[C@H](CC(C)C)NC(=O)[C@](C)(Cc1ccc(O)cc1)NC(=O)[C@@H](CCC(=O)O)NC(=O)[C@@H](NC(=O)[C@H](Cc1ccccc1)NC(=O)[C@H](CCC(=O)O)NC(=O)C(C)(C)NC(=O)[C@H](CCC(N)=O)NC(=O)[C@H](C)NC(=O)[C@H](CCCCNC(=O)COCCOCCNC(=O)COCCOCCNC(=O)CC[C@H](NC(=O)CCCCCCCCCCCCC(=O)O)C(=O)O)NC(=O)[C@H](CCCN)NC(=O)[C@H](CC(=O)O)NC(=O)[C@H](CC(C)C)NC(=O)[C@](C)(CC(C)C)NC(=O)[C@@H](NC(=O)[C@H](CO)NC(=O)[C@H](Cc1ccc2ccccc2c1)NC(=O)[C@H](CC(=O)O)NC(=O)[C@H](CO)NC(=O)[C@@H](NC(=O)[C@](C)(Cc1ccccc1F)NC(=O)[C@@H](NC(=O)CNC(=O)[C@H](CCC(=O)O)NC(=O)C(C)(C)NC(=O)[C@@H](N)Cc1ccc(O)cc1)[C@@H](C)O)[C@@H](C)O)[C@@H](C)CC)[C@@H](C)CC)C(=O)N[C@@H](CCC(=O)O)C(=O)NCC(=O)NCC(=O)N1CCC[C@H]1C(=O)N[C@@H](CO)C(=O)N[C@@H](CO)C(=O)NCC(=O)N[C@@H](C)C(=O)N1CCC[C@H]1C(=O)N1CCC[C@H]1C(=O)N1CCC[C@H]1C(=O)N[C@@H](CO)C(=O)N[C@@H](CCCCNC(=O)COCCOCCNC(=O)COCCOCCNC(=O)CC[C@H](NC(=O)CCCCCCCCCCCCC(=O)O)C(=O)O)C(N)=O [Example 251] |  | 0.338 | > 9950 | > 9950 | 71.2 | 0.0305 | 99 |  | 
CC[C@H](C)[C@H](NC(=O)[C@H](CCCN)NC(=O)[C@H](CC(=O)O)NC(=O)[C@H](CC(C)C)NC(=O)[C@](C)(CC(C)C)NC(=O)[C@@H](NC(=O)[C@H](CO)NC(=O)[C@H](Cc1ccc2ccccc2c1)NC(=O)[C@H](CC(=O)O)NC(=O)[C@H](CO)NC(=O)[C@@H](NC(=O)[C@](C)(Cc1ccccc1F)NC(=O)[C@@H](NC(=O)CNC(=O)[C@H](CCC(=O)O)NC(=O)C(C)(C)NC(=O)[C@@H](N)Cc1ccc(O)cc1)[C@@H](C)O)[C@@H](C)O)[C@@H](C)CC)C(=O)N[C@@H](C)C(=O)N[C@@H](CCC(N)=O)C(=O)NC(C)(C)C(=O)N[C@@H](CCC(=O)O)C(=O)N[C@@H](Cc1ccccc1)C(=O)N[C@H](C(=O)N[C@@H](CCCCNC(=O)COCCOCCNC(=O)COCCOCCNC(=O)CC[C@H](NC(=O)CCCCCCCCCCCCC(=O)O)C(=O)O)C(=O)N[C@@](C)(Cc1ccc(O)cc1)C(=O)N[C@@H](CC(C)C)C(=O)N[C@H](C(=O)N[C@@H](CCCCNC(=O)COCCOCCNC(=O)COCCOCCNC(=O)CC[C@H](NC(=O)CCCCCCCCCCCCC(=O)O)C(=O)O)C(=O)NCC(=O)NCC(=O)N1CCC[C@H]1C(=O)N[C@@H](CO)C(=O)N[C@@H](CO)C(=O)NCC(=O)N[C@@H](C)C(=O)N1CCC[C@H]1C(=O)N1CCC[C@H]1C(=O)N1CCC[C@H]1C(=O)N[C@@H](CO)C(N)=O)[C@@H](C)CC)[C@@H](C)CC [Example 252] |  | 0.555 | > 9950 | > 9950 | 87.2 |  | 115 | 115 | 109
CC[C@H](C)[C@H](NC(=O)[C@H](CCCN)NC(=O)[C@H](CC(=O)O)NC(=O)[C@H](CC(C)C)NC(=O)[C@](C)(CC(C)C)NC(=O)[C@@H](NC(=O)[C@H](CO)NC(=O)[C@H](Cc1ccc2ccccc2c1)NC(=O)[C@H](CC(=O)O)NC(=O)[C@H](CO)NC(=O)[C@@H](NC(=O)[C@](C)(Cc1ccccc1F)NC(=O)[C@@H](NC(=O)CNC(=O)[C@H](CCC(=O)O)NC(=O)C(C)(C)NC(=O)[C@@H](N)Cc1ccc(O)cc1)[C@@H](C)O)[C@@H](C)O)[C@@H](C)CC)C(=O)N[C@@H](C)C(=O)N[C@@H](CCC(N)=O)C(=O)NC(C)(C)C(=O)N[C@@H](CCCCNC(=O)COCCOCCNC(=O)COCCOCCNC(=O)CC[C@H](NC(=O)CCCCCCCCCCCCC(=O)O)C(=O)O)C(=O)N[C@@H](Cc1ccccc1)C(=O)N[C@H](C(=O)N[C@H](CCC(=O)O)C(=O)N[C@@](C)(Cc1ccc(O)cc1)C(=O)N[C@@H](CC(C)C)C(=O)N[C@H](C(=O)N[C@@H](CCCCNC(=O)COCCOCCNC(=O)COCCOCCNC(=O)CC[C@H](NC(=O)CCCCCCCCCCCCC(=O)O)C(=O)O)C(=O)NCC(=O)NCC(=O)N1CCC[C@H]1C(=O)N[C@@H](CO)C(=O)N[C@@H](CO)C(=O)NCC(=O)N[C@@H](C)C(=O)N1CCC[C@H]1C(=O)N1CCC[C@H]1C(=O)N1CCC[C@H]1C(=O)N[C@@H](CO)C(N)=O)[C@@H](C)CC)[C@@H](C)CC [Example 253] |  |  | > 9950 | > 9950 | 78.9 |  | 113 | 114 | 
CC[C@H](C)[C@H](NC(=O)[C@H](CCCN)NC(=O)[C@H](CC(=O)O)NC(=O)[C@H](CC(C)C)NC(=O)[C@](C)(CC(C)C)NC(=O)[C@@H](NC(=O)[C@H](CO)NC(=O)[C@H](Cc1ccc2ccccc2c1)NC(=O)[C@H](CC(=O)O)NC(=O)[C@H](CO)NC(=O)[C@@H](NC(=O)[C@](C)(Cc1ccccc1F)NC(=O)[C@@H](NC(=O)CNC(=O)[C@H](CCC(=O)O)NC(=O)C(C)(C)NC(=O)[C@@H](N)Cc1ccc(O)cc1)[C@@H](C)O)[C@@H](C)O)[C@@H](C)CC)C(=O)N[C@@H](C)C(=O)N[C@@H](CCC(N)=O)C(=O)NC(C)(C)C(=O)N[C@@H](CCCCNC(=O)COCCOCCNC(=O)COCCOCCNC(=O)CC[C@H](NC(=O)CCCCCCCCCCCCC(=O)O)C(=O)O)C(=O)N[C@@H](Cc1ccccc1)C(=O)N[C@H](C(=O)N[C@H](CCC(=O)O)C(=O)N[C@@](C)(Cc1ccc(O)cc1)C(=O)N[C@@H](CC(C)C)C(=O)N[C@H](C(=O)N[C@@H](CCC(=O)O)C(=O)NCC(=O)NCC(=O)N1CCC[C@H]1C(=O)N[C@@H](CO)C(=O)N[C@@H](CO)C(=O)NCC(=O)N[C@@H](C)C(=O)N1CCC[C@H]1C(=O)N1CCC[C@H]1C(=O)N1CCC[C@H]1C(=O)N[C@@H](CO)C(=O)N[C@@H](CCCCNC(=O)COCCOCCNC(=O)COCCOCCNC(=O)CC[C@H](NC(=O)CCCCCCCCCCCCC(=O)O)C(=O)O)C(N)=O)[C@@H](C)CC)[C@@H](C)CC [Example 254] |  |  | > 9950 | > 9950 | 68.5 |  |  | 122 | 98.2
